# Read-outs that look alike come from different tables or passages of the source.
# Assays:
# Experiment in all cases: CellTiter-Glo cell proliferation
# Assay type in all cases: cell-based
# 143B = details: CTG, 72 hours; for % inhibition at top conc.: highest concentration 10/50 μM; for IC50: read-out: Absolute IC50
# Protocol: (§1) The effect of the present invention compound ZZY-003 on the cell proliferation of 50 cell lines was evaluated by CellTiter-Glo (CTG) method, and the 50% inhibitory concentration was calculated by detecting the cell viability after treatment with different drug concentrations. The cells were resuscitated and cultured in their respective culture media. The cells in logarithmic growth phase were harvested and the cells were counted by cell counter. The cell viability was detected by Trypan blue exclusion method to ensure that the cell line viability was more than 96%. The cell concentration was adjusted by diluting with the culture medium, and 90 μL cell suspension was added to the 96-well cell plate (including the cell control T0 on the day of drug treatment) to make the cell density reach the specified concentration. The cells in the 96-well plate were cultured overnight at 37° C., 5% CO2 and 95% humidity. 10 μL culture medium was added to the control cell culture plate. CellTiter-Glo reagent and cell culture plate were placed at room temperature to balance for 30 minutes. The same volume of CellTiter-Glo reagent was added to each well. Vibrate on the orbital shaker for 2 min to make the cells fully lytic. The cell culture plate was placed at room temperature to balance for 10 minutes. Chemiluminescence values were read with EnVision. The storage solution was formed by dissolving the tested compound with the corresponding solvent and diluted in gradient to obtain 10 times working concentration solution, and 10 times solution of positive drug was also prepared. 10 μL drug solution was added to each well in the 96-well plate in which the cells were inoculated, and each cell concentration was provided with three duplicate wells. The highest concentration of the tested compound was 10/50 μM, 9 concentrations and 3.16 times dilution. The cells in the 96-well plate added with drug were cultured at 37° C., 5% CO2 and 95% humidity for 72 hours. CellTiter-Glo reagent and drug-treated cell culture plate were placed at room temperature to balance for 30 minutes. The same volume of CellTiter-Glo reagent was added to each well. Vibrate on the orbital shaker for 2 minutes to make the cells fully lytic. The cell culture plate was placed at room temperature to balance for 10 minutes. Chemiluminescence values were read with EnVision. Data processing: […] Cell survival rate (%)=(Lum drug to be detected−Lum culture medium control)/(Lum cell control−Lum culture medium control)×100%; Lum cell control−Lum culture medium control was set to 100%, LumMedium control value was set to 0%;
# A549 = details: CTG, 72 hours; for % inhibition at top conc.: highest concentration 10/50 μM
# Protocol: as §1
# AMO-1 = details: 72 hours; for % inhibition at top conc.: highest concentration 10/50 μM; for IC50: read-out: Absolute IC50
# Protocol: as §1
# AZ-521 = details: CTG, 72 hours; for % inhibition at top conc.: highest concentration 10/50 μM; for IC50: read-out: Absolute IC50
# Protocol: as §1
# B16-F10 = details: CTG, 72 hours; for % inhibition at top conc.: highest concentration 10/50 μM; for IC50: read-out: Absolute IC50
# Protocol: as §1
# CNE-2Z = details: CTG, 72 hours; for % inhibition at top conc.: highest concentration 10/50 μM; for IC50: read-out: Absolute IC50
# Protocol: as §1
# DLD-1 = details: CTG, 72 hours; for % inhibition at top conc.: highest concentration 10/50 μM; for IC50: read-out: Absolute IC50
# Protocol: as §1
# EBC-1 = details: CTG, 72 hours; for % inhibition at top conc.: highest concentration 10/50 μM; for IC50: read-out: Absolute IC50
# Protocol: as §1
# H69AR = details: CTG, 72 hours; for % inhibition at top conc.: highest concentration 10/50 μM; for IC50: read-out: Absolute IC50
# Protocol: as §1
# HT-1376 = details: CTG, 72 hours; for % inhibition at top conc.: highest concentration 10/50 μM; for IC50: read-out: Absolute IC50
# Protocol: as §1
# HeLa = details: CTG, 72 hours; for % inhibition at top conc.: highest concentration 10/50 μM; for IC50: read-out: Absolute IC50
# Protocol: as §1
# JVM-3 = details: CTG, 72 hours; for % inhibition at top conc.: highest concentration 10/50 μM; for IC50: read-out: Absolute IC50
# Protocol: as §1
# LN-229 = details: CTG, 72 hours; for % inhibition at top conc.: highest concentration 10/50 μM; for IC50: read-out: Absolute IC50
# Protocol: as §1
# MCF 10A = details: CTG, 72 hours; for % inhibition at top conc.: highest concentration 10/50 μM; for IC50: read-out: Absolute IC50
# Protocol: as §1
# MDA-MB-231 = details: CTG, 72 hours; for % inhibition at top conc.: highest concentration 10/50 μM
# Protocol: as §1
# MDA-MB-453 = details: CTG, 72 hours; for % inhibition at top conc.: highest concentration 10/50 μM; for IC50: read-out: Absolute IC50
# Protocol: as §1
# MIA PaCa-2 = details: CTG, 72 hours; for % inhibition at top conc.: highest concentration 10/50 μM; for IC50: read-out: Absolute IC50
# Protocol: as §1
# NCI-H1299 = details: CTG, 72 hours; for % inhibition at top conc.: highest concentration 10/50 μM; for IC50: read-out: Absolute IC50
# Protocol: as §1
# NCI-H1417 = details: CTG, 72 hours; for % inhibition at top conc.: highest concentration 10/50 μM; for IC50: read-out: Absolute IC50
# Protocol: as §1
# PANC-1 = details: CTG, 72 hours; for % inhibition at top conc.: highest concentration 10/50 μM; for IC50: read-out: Absolute IC50
# Protocol: as §1
# Ramos = details: CTG, 72 hours; for % inhibition at top conc.: highest concentration 10/50 μM; for IC50: read-out: Absolute IC50
# Protocol: as §1
# SF268 = details: 72 hours; for % inhibition at top conc.: highest concentration 10/50 μM; for IC50: read-out: Absolute IC50
# Protocol: as §1
# SK-MEL-28 = details: CTG, 72 hours; for % inhibition at top conc.: highest concentration 10/50 μM; for IC50: read-out: Absolute IC50
# Protocol: as §1
# SK-OV-3 = details: CTG, 72 hours; for % inhibition at top conc.: highest concentration 10/50 μM; for IC50: read-out: Absolute IC50
# Protocol: as §1
# SNU-5 = details: CTG, 72 hours; for % inhibition at top conc.: highest concentration 10/50 μM; for IC50: read-out: Absolute IC50
# Protocol: as §1
# SNU-761 = details: CTG, 72 hours; for % inhibition at top conc.: highest concentration 10/50 μM; for IC50: read-out: Absolute IC50
# Protocol: as §1
# SW480 = details: CTG, 72 hours; for % inhibition at top conc.: highest concentration 10/50 μM; for IC50: read-out: Absolute IC50
# Protocol: as §1
# U-937 = details: CTG, 72 hours; for % inhibition at top conc.: highest concentration 10/50 μM; for IC50: read-out: Absolute IC50
# Protocol: as §1
# UO.31 = details: CTG, 72 hours; for % inhibition at top conc.: highest concentration 10/50 μM; for IC50: read-out: Absolute IC50
# Protocol: as §1
# [1] = Homo sapiens, read-out: Absolute IC50
structure (smiles),measurement,setting,value
"N.N.[Cl][Pt][Cl] [Cisplatin, reference compound]",% inhibition at top conc.,143B,99.94%
same,IC50,143B,1150 nM
same,% inhibition at top conc.,A549,96.72%
same,% inhibition at top conc.,AMO-1; CTG,99.99%
same,IC50,AMO-1; CTG,950 nM
same,% inhibition at top conc.,AZ-521,99.92%
same,IC50,AZ-521,2890 nM
same,% inhibition at top conc.,B16-F10,99.97%
same,IC50,B16-F10,4530 nM
same,% inhibition at top conc.,CNE-2Z,96.44%
same,IC50,CNE-2Z,1180 nM
same,% inhibition at top conc.,DLD-1,98.93%
same,IC50,DLD-1,5300 nM
same,% inhibition at top conc.,EBC-1,85.11%
same,IC50,EBC-1,17800 nM
same,% inhibition at top conc.,H69AR,94.93%
same,IC50,H69AR,5650 nM
same,% inhibition at top conc.,HT-1376,88.74%
same,IC50,HT-1376,4100 nM
same,% inhibition at top conc.,HeLa,99.45%
same,IC50,HeLa,370 nM
same,% inhibition at top conc.,JVM-3,99.71%
same,IC50,JVM-3,700 nM
same,% inhibition at top conc.,LN-229,97.32%
same,IC50,LN-229,11800 nM
same,% inhibition at top conc.,MCF 10A,99.51%
same,IC50,MCF 10A,13200 nM
same,% inhibition at top conc.,MDA-MB-231,85.71%
same,% inhibition at top conc.,MDA-MB-453,95.15%
same,IC50,MDA-MB-453,12900 nM
same,% inhibition at top conc.,MIA PaCa-2,99.18%
same,IC50,MIA PaCa-2,6050 nM
same,% inhibition at top conc.,NCI-H1299,98.91%
same,IC50,NCI-H1299,3690 nM
same,% inhibition at top conc.,NCI-H1417,81.11%
same,IC50,NCI-H1417,4400 nM
same,% inhibition at top conc.,PANC-1,94.45%
same,IC50,PANC-1,8670 nM
same,% inhibition at top conc.,Ramos,99.98%
same,IC50,Ramos,1780 nM
same,% inhibition at top conc.,SF268; CTG,97.98%
same,IC50,SF268; CTG,2870 nM
same,% inhibition at top conc.,SK-MEL-28,99.34%
same,IC50,SK-MEL-28,8610 nM
same,% inhibition at top conc.,SK-OV-3,89.16%
same,IC50,SK-OV-3,5170 nM
same,% inhibition at top conc.,SNU-5,97.87%
same,IC50,SNU-5,2450 nM
same,% inhibition at top conc.,SNU-761,99.92%
same,IC50,SNU-761,4520 nM
same,% inhibition at top conc.,SW480,94.12%
same,IC50,SW480,2690 nM
same,% inhibition at top conc.,U-937,99.97%
same,IC50,U-937,2190 nM
same,% inhibition at top conc.,UO.31,97.89%
same,IC50,UO.31,4230 nM
Cc1ccc(C(=O)Nc2cc(N3CCNCC3)ccc2-c2ccc(/C=C/C(=O)NO)cc2C)cc1.Cl [ZZY-003],% inhibition at top conc.,143B,99.97%
same,IC50,143B; Homo sapiens,2250 nM
same,% inhibition at top conc.,A549,95.22%
same,IC50,A549; [1],2210 nM
same,% inhibition at top conc.,AMO-1; CTG,99.95%
same,IC50,"AMO-1; Homo sapiens, AMO1, CTG",1520 nM
same,% inhibition at top conc.,AZ-521,99.95%
same,IC50,AZ-521; Homo sapiens,680 nM
same,% inhibition at top conc.,B16-F10,99.98%
same,IC50,B16-F10; Mus musculus,1030 nM
same,% inhibition at top conc.,CNE-2Z,99.84%
same,IC50,"CNE-2Z; Homo sapiens, CNE2Z",1520 nM
same,% inhibition at top conc.,DLD-1,97.98%
same,IC50,DLD-1; Homo sapiens,5130 nM
same,% inhibition at top conc.,EBC-1,92.30%
same,IC50,EBC-1; Homo sapiens,1150 nM
same,% inhibition at top conc.,H69AR,96.23%
same,IC50,H69AR; Homo sapiens,4360 nM
same,% inhibition at top conc.,HT-1376,99.41%
same,IC50,HT-1376; Homo sapiens,2280 nM
same,% inhibition at top conc.,HeLa,98.88%
same,IC50,HeLa; Homo sapiens,1400 nM
same,% inhibition at top conc.,JVM-3,99.48%
same,IC50,JVM-3; Homo sapiens,350 nM
same,% inhibition at top conc.,LN-229,99.97%
same,IC50,LN-229; Homo sapiens,1570 nM
same,% inhibition at top conc.,MCF 10A,97.73%
same,IC50,MCF 10A; Homo sapiens,1490 nM
same,% inhibition at top conc.,MDA-MB-231,92.06%
same,IC50,MDA-MB-231; [1],1810 nM
same,% inhibition at top conc.,MDA-MB-453,99.93%
same,IC50,MDA-MB-453; Homo sapiens,190 nM
same,% inhibition at top conc.,MIA PaCa-2,99.94%
same,IC50,MIA PaCa-2; Homo sapiens,480 nM
same,% inhibition at top conc.,NCI-H1299,99.94%
same,IC50,NCI-H1299; Homo sapiens,3400 nM
same,% inhibition at top conc.,NCI-H1417,97.14%
same,IC50,NCI-H1417; Homo sapiens,330 nM
same,% inhibition at top conc.,PANC-1,96.79%
same,IC50,PANC-1; Homo sapiens,5840 nM
same,% inhibition at top conc.,Ramos,99.82%
same,IC50,Ramos; Homo sapiens,320 nM
same,% inhibition at top conc.,SF268; CTG,99.82%
same,IC50,"SF268; Homo sapiens, SF-268, CTG",1090 nM
same,% inhibition at top conc.,SK-MEL-28,99.89%
same,IC50,SK-MEL-28; Homo sapiens,1240 nM
same,% inhibition at top conc.,SK-OV-3,99.68%
same,IC50,SK-OV-3; Homo sapiens,1590 nM
same,% inhibition at top conc.,SNU-5,99.83%
same,IC50,SNU-5; Homo sapiens,1640 nM
same,% inhibition at top conc.,SNU-761,99.35%
same,IC50,SNU-761,9320 nM
same,% inhibition at top conc.,SW480,99.24%
same,IC50,SW480; Homo sapiens,1740 nM
same,% inhibition at top conc.,U-937,99.99%
same,IC50,U-937; Homo sapiens,460 nM
same,% inhibition at top conc.,UO.31,99.92%
same,IC50,UO.31; Homo sapiens,4560 nM

# From patent US20200331882A1, “COMPOUND FOR SIMULTANEOUSLY INHIBITING LSD1 AND HDAC TARGETS AND APPLICATION THEREOF” (PEKING UNIVERSITY SHENZHEN GRADUATE SCHOOL, priority 2018, published 2020)
